Source: patent US12350259B2, “Methods of treating migraine” (Allergan Pharmaceuticals International Limited, priority 2021, dated 2025)

Legend:
CYP2C9 = CYP2C9 (Homo sapiens, UniProt P11712); experiment: In vitro CYP inhibition; type: in vitro ADME; conditions: clinically relevant concentrations
[1] = Clinical pharmacokinetics of atogepant after oral administration (summary); type: in vivo, human
OAT1 [2] = target: T1, OAT1 (Homo sapiens, UniProt Q4U2R8); experiment: Transporter substrate; type: in vitro ADME
T1 sequence (Q4U2R8 whole entry): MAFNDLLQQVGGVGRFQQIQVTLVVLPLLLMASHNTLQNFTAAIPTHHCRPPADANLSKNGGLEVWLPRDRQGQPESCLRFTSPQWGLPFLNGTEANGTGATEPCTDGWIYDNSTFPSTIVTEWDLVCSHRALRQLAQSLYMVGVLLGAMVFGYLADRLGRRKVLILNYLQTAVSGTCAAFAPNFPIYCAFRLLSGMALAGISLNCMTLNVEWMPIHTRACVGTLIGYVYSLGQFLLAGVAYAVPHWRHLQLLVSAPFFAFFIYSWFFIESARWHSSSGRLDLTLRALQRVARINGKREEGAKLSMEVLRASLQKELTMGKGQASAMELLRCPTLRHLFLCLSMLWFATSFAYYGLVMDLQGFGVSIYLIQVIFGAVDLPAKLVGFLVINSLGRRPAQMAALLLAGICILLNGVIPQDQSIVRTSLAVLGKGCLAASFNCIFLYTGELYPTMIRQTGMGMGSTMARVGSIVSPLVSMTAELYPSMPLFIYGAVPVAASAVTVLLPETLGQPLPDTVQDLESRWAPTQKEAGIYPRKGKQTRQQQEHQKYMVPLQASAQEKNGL

OATP1B1 = OATP1B1 (Homo sapiens, UniProt Q9Y6L6); experiment: Transporter inhibition; type: in vitro ADME
Chain of OATP1B1 (Q9Y6L6 whole entry): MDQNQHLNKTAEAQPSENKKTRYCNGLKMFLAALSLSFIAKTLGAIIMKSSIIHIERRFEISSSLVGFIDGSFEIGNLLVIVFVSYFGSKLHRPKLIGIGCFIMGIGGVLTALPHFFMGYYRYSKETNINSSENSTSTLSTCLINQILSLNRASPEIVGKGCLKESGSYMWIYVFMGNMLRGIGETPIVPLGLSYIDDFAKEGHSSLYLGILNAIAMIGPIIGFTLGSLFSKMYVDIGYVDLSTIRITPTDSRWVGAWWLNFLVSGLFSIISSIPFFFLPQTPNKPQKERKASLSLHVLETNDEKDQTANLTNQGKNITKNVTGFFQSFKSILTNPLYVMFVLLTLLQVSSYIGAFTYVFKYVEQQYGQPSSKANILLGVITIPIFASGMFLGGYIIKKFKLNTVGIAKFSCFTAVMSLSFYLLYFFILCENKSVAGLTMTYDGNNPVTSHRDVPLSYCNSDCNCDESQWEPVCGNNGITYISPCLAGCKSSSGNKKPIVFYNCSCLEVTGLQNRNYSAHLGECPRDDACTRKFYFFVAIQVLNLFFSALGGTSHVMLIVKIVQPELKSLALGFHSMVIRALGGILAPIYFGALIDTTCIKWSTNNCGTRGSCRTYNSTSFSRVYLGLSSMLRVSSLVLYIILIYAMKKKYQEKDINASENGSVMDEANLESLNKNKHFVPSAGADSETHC

OAT1 [3] = target: T1, OAT1; experiment: Transporter inhibition; type: in vitro ADME; conditions: clinically relevant concentrations
OATP1B3 = OATP1B3 (Homo sapiens, UniProt Q9NPD5); experiment: Transporter substrate; type: in vitro ADME
Chain of OATP1B3 (Q9NPD5 whole entry): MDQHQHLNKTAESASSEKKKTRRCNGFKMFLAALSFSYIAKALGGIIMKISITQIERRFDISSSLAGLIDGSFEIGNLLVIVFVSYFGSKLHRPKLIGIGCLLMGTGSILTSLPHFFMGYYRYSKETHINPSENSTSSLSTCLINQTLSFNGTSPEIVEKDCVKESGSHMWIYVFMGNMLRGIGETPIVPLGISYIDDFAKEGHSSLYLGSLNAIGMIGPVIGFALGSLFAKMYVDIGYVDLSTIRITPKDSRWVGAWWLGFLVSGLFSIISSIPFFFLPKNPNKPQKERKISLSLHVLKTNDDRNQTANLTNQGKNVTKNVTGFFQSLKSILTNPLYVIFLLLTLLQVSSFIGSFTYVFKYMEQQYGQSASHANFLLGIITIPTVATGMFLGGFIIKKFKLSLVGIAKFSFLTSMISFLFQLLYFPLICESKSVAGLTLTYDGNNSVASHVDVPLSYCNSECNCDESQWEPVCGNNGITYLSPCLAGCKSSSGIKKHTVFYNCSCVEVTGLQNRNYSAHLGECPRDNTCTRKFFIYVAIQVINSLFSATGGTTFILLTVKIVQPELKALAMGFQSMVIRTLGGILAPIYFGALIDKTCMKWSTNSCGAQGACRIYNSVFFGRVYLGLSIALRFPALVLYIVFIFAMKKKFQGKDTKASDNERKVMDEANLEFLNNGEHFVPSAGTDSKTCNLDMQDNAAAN

[4] = Atogepant-itraconazole interaction study: safety and tolerability; type: in vivo, human
From the text: The primary objective of this study was to assess the effects of multiple dose itraconazole on the pharmacokinetics of a single dose of atogepant. The primary endpoints were PK parameters of atogepant derived from plasma concentrations. The secondary objectives of the study were to assess the safety and tolerability of atogepant and itraconazole given alone and in combination, and to establish the correlation between concentrations of atogepant in dried blood sample (DBS) (obtained via finger stick) and plasma. The secondary endpoints included AEs, clinical laboratory parameters, vital signs, ECG, and physical examination, and correlation of concentrations of atogepant in DBS and plasma. Subjects who satisfied the inclusion and exclusion criteria were assigned to a single fixed-treatment sequence in which they received Treatment A followed by Treatment B; there was a 7-day washout period between treatments. • Treatment A: Single oral 60 mg dose of atogepant (tablet) under fasted conditions on Day 1 • Treatment B • Days 8-14: Itraconazole 200 mg (tablet) orally once daily under fed conditions. • Day 15: Itraconazole 200 mg coadministered with atogepant 60 mg (tablet) under fasted conditions. • Days 16 to 17: Itraconazole 200 mg (tablet) once daily under fed conditions.

Chain of CYP2C9 (P11712 whole entry): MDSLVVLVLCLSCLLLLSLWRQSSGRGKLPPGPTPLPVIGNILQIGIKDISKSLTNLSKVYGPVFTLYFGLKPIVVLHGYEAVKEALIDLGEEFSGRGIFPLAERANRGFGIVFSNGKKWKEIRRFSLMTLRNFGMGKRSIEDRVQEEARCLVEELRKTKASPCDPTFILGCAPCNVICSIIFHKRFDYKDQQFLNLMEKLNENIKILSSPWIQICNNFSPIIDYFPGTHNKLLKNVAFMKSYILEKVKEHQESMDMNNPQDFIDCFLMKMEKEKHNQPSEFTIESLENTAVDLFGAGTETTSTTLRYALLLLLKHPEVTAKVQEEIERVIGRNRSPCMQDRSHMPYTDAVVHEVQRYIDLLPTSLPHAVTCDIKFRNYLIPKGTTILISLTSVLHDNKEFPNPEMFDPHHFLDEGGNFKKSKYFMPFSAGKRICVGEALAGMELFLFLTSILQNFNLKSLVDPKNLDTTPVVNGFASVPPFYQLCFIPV

For `C[C@@H]1[C@H](c2c(F)ccc(F)c2F)C[C@H](NC(=O)c2cnc3c(c2)C[C@@]2(C3)C(=O)Nc3ncccc32)C(=O)N1CC(F)(F)F` [atogepant, (3′S)-N-[(3S,5S,6R)-6-methyl-2-oxo-1-(2,2,2-trifluoroethyl)-5-(2,3,6-trifluorophenyl)piperidin-3-yl]-2′-oxo-1′,2′,5,7-tetrahydrospiro[cyclopenta[b]pyridine-6,3′-pyrrolo[2,3-b]pyridine]-3-carboxamide], the “inhibition of CYP2C9” value (CYP2C9) was “not an inhibitor”, the “mean apparent oral clearance (CL/F)” value ([1]; human, in vivo, po) was “approximately 19 L/hr” and the half-life ([1]; human, plasma, oral, read-out: elimination half-life (converted)) was about 11 h. For the same compound, the Vd/F ([1]; human, plasma, after oral administration, read-out: mean apparent volume distribution (Vz/F)) was about 282 L, the accumulation ([1]; once daily dosing) was “no accumulation” and the dose proportionality ([1]; once daily dosing) was “dose-proportional pharmacokinetics up to 170 mg”. The “substrate of OAT1” value (OAT1 [2]) was “substrate”, the “inhibition of OATP1B1” value (OATP1B1) was “weak inhibitor” and the “inhibition of OAT1” value (OAT1 [3]) was “not an inhibitor”. The “substrate of OATP1B3” value (OATP1B3) was “substrate”, the “subjects experiencing dizziness (TEAE)” value ([4]; atogepant alone) was 2 subjects and the tolerability ([4]; each treatment (atogepant alone, itraconazole, combination)) was “well-tolerated”.
